# Laboratory results: patent US7488738B2, “Aminophenoxyacetic acid derivatives and pharmaceutical composition containing thereof” (Asubio Pharma Co., Ltd., priority 1998, dated 2009)
# Assays:
# [1] = system: calbindin D28Kd; experiment: Calbindin D28Kd inducing effect (western blot); type: cell-based, rats of Wister strain; conditions: fetal rat cerebral cortex cells, none-treated control = 100
# Method: Biological Test 2: Calbindin D28Kd Inducing Effect
# In accordance with the method of M. P. Mattoson [M. P. Mattoson, Brain Res. Rev., 13, 179 (1988)], brain of 18-days fetus rats of Wister strain were taken out. Then, cells of cerebral cortex (5,500 cells/m^2) were seeded on poly-L-lysine coated 6 wells plate (Falcon) (3.5 mm, Sumilon) and incubated for 7 days.
# Test compounds were added on culture day 5, and after 7 days of incubation, the protein was extracted with homogenized buffer-solution [containing 20 mM of Tris-HCl (pH=7.4), 1 mM of EDTA, and 0.1 mM of phenylmethylsulfonyl fluoride].
# The effect of the test compounds was determined by the western blot technique using polyclonal anti calbindine D28K (Swant Co., Ltd.) as antibody.
# In the table, the amount of induced calbindine D28Kd of the control group (none-treated group) was indicated as 100 percents.
# [2] = system: rats of slc:Wister strain; experiment: Cerebral edema suppressing effect (brain injury by metal screw); type: in vivo; conditions: rat, water content of injured hemisphere 6 days after operation
# Method: Biological Test 3: Cerebral Edema Suppressing Effect 8-week-old rats of slc:Wister strain were used. Rats were anesthetized by intraperitoneal administration of 50 mg/kg of Nembutal (Trade Name), and then, fixed on brain fixactor. The sterile metal screw (3.75 mm in length/1.0 mm in diameter/0.75 mm in length of screw thread) was plugged in the 1.5 mm right and 0.8 mm rear side of the bregma to press frontparietal cortex organ to cause brain injury. 6 days after the operation, the whole brain was taken out and right cerebral hemisphere (injured side) was isolated. After measurement of the wet weight of the cerebral hemisphere, it was dried at 110° C. for 24 hours on aluminum foil. The dry weight of the cerebral hemisphere was measured, and the water content was calculated by using the following formula: Water content (%)=[(wet weight of hemisphere−dry weight of hemisphere)/wet weight of hemisphere]×100 The test compounds were intravenously administered just after the operation via tail vein of the rats.
# [3] = system: cells of cerebral cortex; experiment: Cytoprotective effect against glutamate induced cell death (MTT); type: cell-based, rats of Wister strain; conditions: compound 1 μM added 24 h before 1 mM glutamate, fetal rat cerebral cortex cells, control group = 100%; for viability at 1 µM: read-out: Survival Rate (%) (Compound: 1 μM)
# Method: Biological Test 1: Cytoprotective Effect Against Glutamate Induced Cell Death
# In accordance with the method of M. P. Mattoson [M. P. Mattoson, Brain Res. Rev., 13, 179 (1988)], brain of 18-days fetus rats of Wister strain were taken out. Then, cells of cerebral cortex (4×10^5 cells/ml) were seeded on poly-L-lysine coated 96 wells flat bottom plate (Sumitomo Bakelite Co., Ltd.) in concentration of 4×10^4 cells/each well. After 48 hours of incubation, 1 μM of test compounds were added, then after further 24 hours, 1 mM of glutamate were further added for inducing the cell injury. 12 hours after adding glutamate, MTT [3-(4,5-dimethylthiazol)-2,5-diphenyltetrazolium bromide] was added and incubated for 6 hours.
# After incubation, 200 μl of dimethy sulfoxide was added to each wells, and the amounts of reduced MTT were calorimetrically analyzed by Micro ELISA Reader using 570 nm of main-wavelength and 650 nm of sub-wavelength.
# The effect of the test compounds was determined as the survival rate of living cells (%) according to the following equation: Survival rate of living cells (%)=[(test compound group−glutamate treated group)÷(control group−glutamate treated group)]×100
# That is, the survival rate of living cells after incubation of the control group was converted to 100%, and the survival data of living cells of the tested compounds was shown in Table II.
# [4] = 3 mg/kg intravenously just after operation
# [5] = 1 mg/kg intravenously just after operation
SMILES,Amount of induced Calbindine D28Kd (% vs. control) (Compound: 1 μM) [1],"Cerebral edema suppressing rate (%) [2, 4] [%]",Survival Rate (%) (Compound: 1 μM) [3],"Cerebral edema suppressing rate (%) [2, 5] [%]",viability at 1 µM [3] [%]
"Cc1cc(OCC(=O)N(C)C2CCN(CC(=O)Nc3ccccc3)CC2)c(C)c(C)c1N [Compound 29, 2-(4-Amino-2,3,5-trimethylphenoxy)-N-[1-(2-anilino-2-oxyethyl)-4-piperidinyl]-N-methylacetamide]",122,30.9,–,–,–
"Cc1c(C)c(NCC(=O)N(C)C2CCN(CCc3ccccc3)CC2)c(C)c(C)c1N [Compound 40, 2-(4-Amino-2,3,5,6-tetramethylanilino)-N-methyl-N-[1-(2-phenethyl)-4-piperidinyl]acetamide]",150,20.5,108,31.1,–
"Cc1cc(OC(C)(C)C(=O)N(C)C2CCN(CC(=O)Nc3ccccc3)CC2)c(C)c(C)c1N [Compound 42, 2-(4-Amino-2,3,5-trimethylphenoxy)-2-methyl-N-[1-(2-anilino-2-oxyethyl)-4-piperidinyl]-N-methylpropamide]",–,31.0,131,24.5,–
"Cc1cc(OCC(=O)NC2CCN(CC(=O)NC3(c4ccccc4)CC3)CC2)c(C)c(C)c1N [Compound 104, 2-(4-Amino-2,3,5-trimethylphenoxy)-N-[1-(2-(1-phenylcyclopropyl)amino-2-oxyethyl)-4-piperidinyl]acetamide]",–,18.9,117,–,–
"Cc1cc(OCC(=O)N(C)C2CCN(CC(=O)N(C)c3ccccc3)CC2)c(C)c(C)c1N [Compound 105, 2-(4-Amino-2,3,5-trimethylphenoxy)-N-methyl-N-[1-(2-(N-methylanilino)-2-oxyethyl)-4-piperidinyl]acetamide]",–,23.2,86,–,–
Cc1cc(OCC(=O)NC2CCN(CC(=O)N(C)c3ccccc3)CC2)c(C)c(C)c1N [Compound 108],–,20.3,–,–,–
"Cc1c(C)c(NCC(=O)N(C)C2CCN(CC(C(=O)O)c3ccccc3)CC2)c(C)c(C)c1N (stereo not drawn) [Compound 109, 3{4-[[2-(4-Amino-2,3,5,6-tetramethylanilino)-acetyl](methyl)amino]-1-piperidino}-2-phenylpropionic acid]",–,24.7,76,–,–
"Cc1c(C)c(NCC(=O)N(C)C2CCN(CC(=O)c3ccccc3)CC2)c(C)c(C)c1N [Compound 111, 2-(4-Amino-2,3,5,6-tetramethylanilino)-N-methyl-[1-(2-phenyl-2-oxyethyl)-4-piperidinyl]acetamide]",167,25.0,84,–,–
"Cc1c(C)c(NCC(=O)N(C)C2CCN(CC(O)c3ccccc3)CC2)c(C)c(C)c1N (stereo not drawn) [Compound 112, 2-(4-Amino-2,3,5,6-tetramethylanilino)-N-[1-(2-hydroxy-2-phenylethyl)-4-piperidinyl]-N-methylacetamide]",–,20.7,–,–,76
Cc1c(C)c(NCC(=O)N(C)C2CCN(CC3CC3)CC2)c(C)c(C)c1N [Compound 113],–,20.0,74,–,–
"Cc1c(C)c(NCC(=O)N(C)C2CCN(CCN3CCOCC3)CC2)c(C)c(C)c1N [Compound 119, 2-(4-Amino-2,3,5,6-tetramethylanilino)-N-methyl-N-{1-[2-(4-morpholinyl)ethyl]-4-piperidinyl}acetamide]",–,–,–,21.6,115
"Cc1cc(C)c(NCC(=O)N(C)C2CCN(C(=O)c3ccccc3)CC2)c(C)c1N [Compound 128, 2-(3-Amino-2,4,6-trimethylanilino)-N-(1-benzoyl-4-piperidinyl)-N-methylacetamide]",171,20.3,–,–,81
"Cc1cc(C)c(NCC(=O)N(C)C2CCN(S(=O)(=O)c3ccccc3)CC2)c(C)c1N [Compound 130, 2-(3-Amino-2,4,6-trimethylanilino)-N-methyl-N-[1-(phenylsulfonyl)-4-piperidinyl]acetamide]",–,–,–,–,60
"Cc1cc(C)c(NCC(=O)N(C)C2CCN(Cc3ccccc3)CC2)c(C)c1N [Compound 131, 2-(3-Amino-2,4,6-trimethylanilino)-N-(1-benzyl-4-piperidinyl)-N-methylacetamide]",–,–,–,–,65
"CCCCN1CCC(N(C)C(=O)CNc2c(C)cc(C)c(N)c2C)CC1 [Compound 132, 2-(3-Amino-2,4,6-trimethylanilino)-N-(1-butyl-4-piperidinyl)-N-methylacetamide]",–,–,–,30.4,60
"Cc1cc(C)c(NCC(=O)N(C)C2CCN(Cc3ccc4ccccc4c3)CC2)c(C)c1N [Compound 133, 2-(3-Amino-2,4,6-trimethylanilino)-N-methyl-N-[1-(2-naphthyl)methyl-4-piperidinyl]acetamide]",–,–,–,–,101
"Cc1cc(C)c(NCC(=O)N(C)C2CCN(C(=O)c3cccc(C(F)(F)F)c3)CC2)c(C)c1N [Compound 134, 2-(3-Amino-2,4,6-trimethylanilino)-N-methyl-N-[1-(3-trifluoromethylbenzoyl)-4-piperidinyl]acetamide]",–,35.0,–,27.9,79
"Cc1cc(C)c(N(C)C)c(C)c1NCC(=O)N(C)C1CCN(C(=O)c2ccccc2)CC1 [Compound 135, N-(1-benzoyl-4-piperidinyl)-2-(3-dimethylamino-2,4,6-trimethylanilino)-N-methylacetamide]",–,–,–,–,76
"CN(C(=O)CNc1cc(Cl)c(N)cc1Cl)C1CCN(CCc2ccccc2)CC1 [Compound 138, 2-(4-Amino-2,5-dichloroanilino)-N-methyl-N-[1-(2-phenethyl)-4-piperidinyl]acetamide]",–,–,42,–,–
"CN(C(=O)CNc1c(Cl)cc(N)cc1Cl)C1CCN(CC(=O)Nc2ccccc2)CC1 [Compound 139, 2-(4-Amino-2,6-dichloroanilino)-N-[1-(2-anilino-2-oxyethyl)-4-piperidinyl]-N-methylacetamide]",–,–,53,–,–
